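All cell lines were grown in 96-well plates and treated with compound for 48 hours. GI50 is the concentration that inhibits growth by half. TGI marks complete inhibition of growth.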

Common to all, as to experiment: NCI-60 cell line screen, 48 h
The subject of assay [1] is HOP-62 NSCLC.
Assay [2] relates to SF-295 CNS.
Assay [3] deals with LOX IMVI melanoma.
The test system of assay [4] is CAKI-1 renal.
Assay [5] deals with SNB-75 CNS.
Assay [6] deals with OVCAR-8 ovarian.
Assay [7] deals with RPMI-8226 leukemia.
Assay [8] deals with CCRF-CEM leukemia.
Assay [9] has as its system SK-MEL-5 melanoma.
The subject of assay [10] is IGROV1 ovarian.

In the case of `O=c1onc2c3ccccc3ncn12`, the TGI in [1], in [2], in assay [3], in assay [4], in assay [5] and in assay [6] was over 100 µM each time. Moreover, the TGI in [7], in [8], in assay [9] and in assay [10] was over 100 µM each time.

Consider `O=[As](O)(O)c1ccc(N=Nc2ccc(O)cc2)cc1`, for which the TGI in [1], in assay [2], in assay [3], in [4], in assay [5] and in assay [6] was over 100 µM each time. The TGI in assay [7], in [8], in assay [9] and in assay [10] was over 100 µM throughout.

Take `Cc1ccc(CC(C)N)cc1` (centres undefined): the TGI in assay [1], in [2], in assay [3], in assay [4], in [5] and in assay [6] was over 100 µM throughout. Also, the TGI in [7], in assay [8], in assay [9] and in assay [10] was over 100 µM in each case.

With `CCOc1cc(NC(C)=O)ccc1C(=O)NN1C(=O)C(Cl)C1c1ccco1` (centres undefined), the TGI in assay [1] is 35.7 µM; in [2], 30.5 µM; in [3], 13.1 µM; in assay [4], 30.9 µM; in [5] it was 26.7 µM; in assay [6], over 100 µM. Moreover, the TGI was 45.5 µM in assay [7], 49.1 µM in assay [8], 27.9 µM in assay [9] and 28.8 µM in assay [10].

Take `CC1OC(O[C@H]2/C=C/C=C/C=C/C=C/C=C/C=C/C=C/[C@H](C)[C@@H](O)[C@@H](C)[C@H](C)OC(=O)CC(O)CC(O)CCC(O)C(O)CC(O)C[C@]3(O)C[C@H](O)C(C(=O)O)C(C2)O3)C(O)[C@H](N)C1O` (some centres undefined): the GI50 in [1] is 1.57 µM; in assay [2], 18.6 µM; in assay [3], 1.79 µM; in assay [4], 3.16 µM; in assay [5], 25.3 µM; in assay [6], 2.9 µM. Further, the GI50 in [7] is 16.6 µM; in [9] it was 3.51 µM; in [10], 2.31 µM. Also, the TGI in [1] is 3.11 µM; in assay [2] it was 38 µM; in assay [3], 3.6 µM; in [4] it was 11.7 µM; in assay [5] it was over 100 µM; in assay [6], 9.86 µM. Further, the TGI is 59 µM in assay [7], over 100 µM in assay [8], 12.8 µM in assay [9] and 4.73 µM in assay [10].

For `CC(NC(C)(C)C)C(=O)c1cccc(Cl)c1` (centres undefined), the TGI in assay [1], in assay [2], in assay [3], in [4], in assay [5] and in assay [6] was over 100 µM each time. The TGI in assay [7], in assay [8], in assay [9] and in assay [10] was over 100 µM in each case.

For `COc1cccc(N2C(=O)C3c4[nH]c5ccc(C)cc5c4C4CCC(C(C)(C)C)CC4C3C2=O)c1` (centres undefined), the TGI in assay [1] is over 10 µM; in [2], over 10 µM; in assay [3], 3.98 µM; in assay [4], over 10 µM; in assay [5], 7.36 µM; in [6], 5.85 µM. The TGI in assay [7] is over 10 µM; in assay [8] it was 7.57 µM; in assay [9], over 10 µM; in [10], over 10 µM.

On to `Cc1ccc(/C=C2\CCCC(CN3CCCCC3)C2=O)cc1` (centres undefined), for which the TGI amounted to 35.4 µM in assay [1]; 30.9 µM in [2]; 3.29 µM in assay [3]; 3.19 µM in assay [4]; 17.7 µM in assay [5]; 6.79 µM in assay [6]. For the same molecule, the TGI in assay [7] is over 100 µM; in assay [8] it was 3.03 µM; in [9] it was 17.4 µM; in assay [10], 3.72 µM.

For the molecule `Cc1ccc2c(=O)cc(-c3ccc(-c4ccccc4)s3)[nH]c2n1`, the TGI in [1] is over 76.8 µM; in assay [2], 99.5 µM; in [3], over 100 µM; in assay [4] it was over 100 µM; in assay [5], over 100 µM; in [6], over 100 µM. Besides, the TGI was over 100 µM in assay [7], over 100 µM in assay [8], over 39.7 µM in assay [9] and over 100 µM in assay [10].

Regarding `O=C(O)CNC(=O)c1c2ccccc2nc2ccccc12`, the TGI in assay [1], in assay [2], in assay [3], in assay [4], in assay [5] and in assay [6] was over 100 µM in each case. The TGI in assay [7], in assay [8], in assay [9] and in assay [10] was over 100 µM throughout.

For `CC(C)=C/C=C1/CS(=O)(=O)C=C1C`, the TGI in [1], in assay [2], in assay [3], in assay [4], in [5] and in assay [6] was over 100 µM in each case. The TGI in assay [7], in [8], in assay [9] and in assay [10] was over 100 µM each time.

For `Cc1cc(O)c(C(C)C)cc1C1(c2cc(C(C)C)c(O)cc2C)OC(=O)c2ccccc21`, the TGI came to 8.75 µM in assay [1]; 3.69 µM in [2]; 3.53 µM in assay [3]; 18.4 µM in assay [4]; 6.16 µM in assay [5]; 9.14 µM in assay [6]. Moreover, the TGI in assay [7] was 3.17 µM; in [8], 3.1 µM; in assay [9], 2.99 µM; in assay [10] it was 8.89 µM.

`N#C/C(=C\c1c[nH]c2ccccc12)C(=O)c1ccc(O)c(O)c1`: the TGI was over 61.5 µM in assay [1]; 67 µM in assay [2]; over 100 µM in assay [3]; over 100 µM in [4]; over 100 µM in assay [5]; over 100 µM in assay [6]. Moreover, the TGI in [7] is over 31.6 µM; in [8], over 36.2 µM; in assay [9], over 100 µM; in assay [10] it was over 89.4 µM.

`C[C@H]1C=C2[C@@H]3CC(C)(C(=O)O)CC[C@]3(C)CC[C@]2(C)[C@]2(C)CC[C@H]3C(C)(C)[C@@H](OC(=O)c4cccc5c(=O)c6ccccc6[nH]c45)CC[C@]3(C)[C@@H]12` (some centres undefined): the TGI in assay [1], in assay [2], in assay [3], in assay [4], in [5] and in assay [6] was over 100 µM each time. The TGI in [7], in [8], in assay [9] and in [10] was over 100 µM each time.

On to `CC(C)[C@@H]1ON1C(C)c1ccccc1` (some centres undefined), for which the TGI is over 100 µM in assay [1]; over 100 µM in assay [2]; over 100 µM in [3]; 34.7 µM in [4]; over 100 µM in assay [5]; over 100 µM in assay [6]. The TGI in [7], in assay [8], in assay [9] and in [10] was over 100 µM each time.

Regarding `COC(=O)c1cnn2c1n[n+]([O-])c1ccccc12`, the TGI in assay [1], in assay [2], in assay [3], in [4], in assay [5] and in assay [6] was over 100 µM throughout. The TGI in assay [7], in assay [8], in assay [9] and in assay [10] was over 100 µM in each case.

As to `OC(c1ccc(-c2ccccc2)cc1)C(F)(F)c1nc2ccccc2o1` (centres undefined), the TGI is over 73.6 µM in assay [1]; over 100 µM in assay [2]; over 100 µM in [3]; 61.2 µM in assay [4]; over 100 µM in assay [5]; over 93.1 µM in assay [6]. Further, the TGI in assay [7], in [8], in assay [9] and in assay [10] was over 100 µM in each case.

Regarding `Brc1ccc(-c2cn3ccncc3n2)cc1`, the TGI in assay [1], in assay [2], in [3], in assay [4], in assay [5] and in [6] was over 100 µM each time. Further, the TGI in assay [7], in assay [8], in assay [9] and in assay [10] was over 100 µM in each case.

Turning to `Cc1ccc(N=Nc2c(O)c(C(=O)Nc3ccccc3)cc3ccccc23)c([N+](=O)[O-])c1`, the TGI in [1], in [2], in assay [3], in assay [4], in assay [5] and in [6] was over 100 µM each time. In addition, the TGI in assay [7], in [8], in [9] and in assay [10] was over 100 µM each time.

With `COc1ccc(-n2cnc3c(NC(CCSC)C(=O)O)ncnc32)cc1` (centres undefined), the TGI in assay [1], in [2], in assay [3], in assay [4], in assay [5] and in [6] was over 100 µM throughout. In addition, the TGI in assay [7], in [8], in assay [9] and in assay [10] was over 100 µM throughout.

Regarding `CC(=O)OCC1OC(n2c(=O)[nH]c(=O)c3sccc32)C(Br)C1OC(C)=O` (centres undefined), the TGI in [1], in assay [2], in assay [3], in assay [4], in assay [5] and in [6] was over 100 µM throughout. Besides, the TGI in assay [7], in assay [8], in [9] and in assay [10] was over 100 µM throughout.

`O=C1NC(=S)N(c2ccccc2)C1=O`: the TGI in assay [1], in [2], in [3], in assay [4], in [5] and in assay [6] was over 100 µM each time. For the same molecule, the TGI in [7], in assay [8], in assay [9] and in assay [10] was over 100 µM in each case.

In the case of `O=C1C[C@@H](c2ccccc2)O[C@@H](c2ccccc2)C1`, the TGI in assay [1], in assay [2], in assay [3], in assay [4], in assay [5] and in assay [6] was over 100 µM each time. Moreover, the TGI in assay [7], in assay [8], in assay [9] and in [10] was over 100 µM throughout.

For the molecule `CC(C)(C)c1cc(C2COC(c3cc(C(C)(C)C)c(O)c(C(C)(C)C)c3)CO2)cc(C(C)(C)C)c1O` (centres undefined), the TGI in [1], in [2], in assay [3], in assay [4], in [5] and in assay [6] was over 100 µM each time. For the same molecule, the TGI in assay [7], in [8], in assay [9] and in [10] was over 100 µM throughout.

Turning to `COc1cc([C@@H]2c3cc(O)c(OC)cc3C=C(C(N)=O)[C@H]2C(N)=O)ccc1O`, the TGI in assay [1], in assay [2], in [3], in assay [4], in [5] and in assay [6] was over 100 µM each time. Besides, the TGI in assay [7], in assay [8], in [9] and in assay [10] was over 100 µM in each case.

As for `Nc1ccc(C(=O)NN2C(=O)C(Cl)C2c2ccccc2)cc1` (centres undefined), the TGI in assay [1], in [2], in assay [3], in assay [4], in assay [5] and in assay [6] was over 100 µM each time. Moreover, the TGI in assay [7], in assay [8], in [9] and in assay [10] was over 100 µM each time.

The values are drawn from PubChem BioAssay (NCI).
